In patent US9718790B2, “Triazine derivative and pharmaceutical composition having an analgesic activity comprising the same” (SHIONOGI & CO., LTD., priority 2010, dated 2017):

How the values were obtained:
[1] = target: rat P2X3 receptor (Rattus norvegicus (Rat), UniProt P49654); test: Evaluation of rat P2X3 receptor inhibitory activity (Fluo-3 calcium fluorescence, FDSS 3000, ATP stimulation); format: cell-based
Procedure: Rat P2X3 receptor gene (GenBank accession number NM_031075) was expressed in C6BU-1 cell. The cells stably expressing rat P2X3 were seeded in a 96-well microtiter plate at a concentration of 8000 cells/well and cultured in the medium (8.3% fetal bovine serum. 8.3% horse serum, 1% antibiotic and antifungal in DMEM) for one day at 37° C. under 5% carbon dioxide atmosphere. In transiently expressing system, the C6BU-1 cells were seeded in a […] at a concentration of 2500 cells/well and cultured in the medium for one day at 37° C. under 5% carbon dioxide atmosphere. The plasmid was transfected into the cells using transfection reagent FuGENE6 (Roche). The transfected cells were cultured in the medium for one day at 37° C. under 5% carbon dioxide atmosphere. […] Measurement of fluorescence intensity by FDSS 3000 was started, and 40 μL of DMSO solutions containing different concentrations of the test compound as prepared by dilution with dilution buffer (20 mM HEPES, 137 mM NaCl, 2.7 mM KCl, 0.9 mM MgCl2, 5.0 mM CaCl2, 5.6 mM D-glucose, 2.5 mM probenecid, 0.1% Pluronic F-127, pH 7.5) were dispensed to each well through the built-in automatic dispenser. Five minutes after, […] ATP solution (50 μL) prepared by dilution with the dilution buffer was dispensed through the built-in automatic dispenser, and the measurement of fluorescence intensity was continued for 3 min. For each well, the specific maximum fluorescence intensity was calculated as the ratio of the maximum fluorescence intensity after addition of the ATP solution to the fluorescence intensity at the starting of the measurement. […] FDSS software (Hamamatsu Photonics K.K.) was used for calculation of the specific maximum fluorescence intensity. IC50 was calculated using Microsoft Excel (Microsoft Corporation) and XLfit (idbs Ltd.).

[2] = target: CYP2C9 (Homo sapiens (Human), UniProt P11712); test: CYP inhibition test, pooled human hepatic microsome, tolbutamide methyl-hydroxylation; format: in vitro ADME; settings: substrate tolbutamide
Sequence of CYP2C9 (P11712 whole entry): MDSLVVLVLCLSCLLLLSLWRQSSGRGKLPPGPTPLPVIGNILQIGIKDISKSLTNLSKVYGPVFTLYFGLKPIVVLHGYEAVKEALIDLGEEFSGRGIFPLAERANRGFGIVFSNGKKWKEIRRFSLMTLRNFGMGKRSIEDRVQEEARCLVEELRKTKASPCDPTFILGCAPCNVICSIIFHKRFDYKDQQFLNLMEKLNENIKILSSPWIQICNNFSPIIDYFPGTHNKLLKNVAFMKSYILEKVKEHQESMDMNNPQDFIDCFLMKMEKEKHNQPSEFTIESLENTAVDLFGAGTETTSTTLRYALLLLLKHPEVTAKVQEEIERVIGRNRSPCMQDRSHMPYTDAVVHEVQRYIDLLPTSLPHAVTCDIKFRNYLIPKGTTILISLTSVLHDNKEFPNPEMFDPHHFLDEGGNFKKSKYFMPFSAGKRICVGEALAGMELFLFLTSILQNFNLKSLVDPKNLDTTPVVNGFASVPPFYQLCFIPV
Procedure: (§1) Using commercially available pooled human hepatic microsome, and employlng, as markers, 7-ethoxyresorufin O-deethylation (CYP1A2), tolbutamide methyl-hydroxylation (CYP2C9), mephenyloin 4′-hydroxylation (CYP2C19), dextromethorphan O-demethylation (CYP2D6), and terfenedine hydroxylation as typical substrate metabolism reactions of human main five CYP enzyme forms (CYP1A2, 2C9, 2C19, 2D6, 3A4), an inhibitory degree of each metabolite production amount by a test compound was assessed.
(§2) The reaction conditions were as follows: substrate, 0.5 μmol/L ethoxyresorufin (CYP1A2), 100 μmol/L tolbutamide (CYP2C9), 50 μmol/L S-mephenitoin (CYP2C19), 5 μmol/L dextromethorphan (CYP2D6), 1 μmol/L terfenedine (CYP3A4) reaction time, 15 minutes; reaction temperature, 37° C; enzyme, pooled human hepatic microsome 0.2 mg protein/mL; test drug concentration, 1.0, 5.0, 10, 20 μmol/L (four points).
(§3) Each five kinds of substrates, human hepatic microsome, or a test drug in 50 mmol/L Hepes buffer as a reaction solution was added to a 96-well plate at the composition as described above, NADPH, as a cofactor was added to initiate metabolism reactions as markers and, after the incubation at 37° C. for 15 minutes, a methanol/acetonitrile=1/1 (v/v) solution was added to stop the reaction. After the centrifugation at 3000 rpm for 15 minutes, resorufin (CYP1A2 metabolite) in the supernatant was quantified by a fluorescent multilabel counter and tributamide hydroxide (CYP2CP metabolite), mephenyloin 4′ hydroxide (CYP2C19 metabolite), […] (CYP2D6 metabolite), and terfenadine alcohol (CYP3A4 metabolite) were quantified by LC/MS/MS.

[3] = target: CYP2C19 (Homo sapiens (Human), UniProt P33261); test: CYP inhibition test, pooled human hepatic microsome, mephenytoin 4'-hydroxylation; format: in vitro ADME; settings: substrate S-mephenitoin
Sequence of CYP2C19 (P33261 whole entry): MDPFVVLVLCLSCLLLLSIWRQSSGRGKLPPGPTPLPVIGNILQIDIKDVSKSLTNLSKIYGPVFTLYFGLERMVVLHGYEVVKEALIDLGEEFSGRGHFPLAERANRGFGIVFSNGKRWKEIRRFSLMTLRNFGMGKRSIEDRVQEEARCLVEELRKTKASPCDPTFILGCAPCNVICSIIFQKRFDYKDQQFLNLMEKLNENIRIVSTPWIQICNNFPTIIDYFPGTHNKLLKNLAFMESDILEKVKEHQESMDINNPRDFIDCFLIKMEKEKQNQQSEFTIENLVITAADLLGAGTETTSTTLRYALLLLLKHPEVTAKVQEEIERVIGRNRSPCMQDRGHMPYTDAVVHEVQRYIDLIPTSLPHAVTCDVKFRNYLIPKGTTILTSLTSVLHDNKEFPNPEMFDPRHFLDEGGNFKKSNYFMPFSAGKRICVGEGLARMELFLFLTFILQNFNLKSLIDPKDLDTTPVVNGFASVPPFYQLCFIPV
Procedure: as §1, §2, §3

[4] = target: CYP3A4 (Homo sapiens (Human), UniProt P08684); test: CYP inhibition test, pooled human hepatic microsome, terfenedine hydroxylation; format: in vitro ADME; settings: substrate terfenedine
Sequence of CYP3A4 (P08684 whole entry): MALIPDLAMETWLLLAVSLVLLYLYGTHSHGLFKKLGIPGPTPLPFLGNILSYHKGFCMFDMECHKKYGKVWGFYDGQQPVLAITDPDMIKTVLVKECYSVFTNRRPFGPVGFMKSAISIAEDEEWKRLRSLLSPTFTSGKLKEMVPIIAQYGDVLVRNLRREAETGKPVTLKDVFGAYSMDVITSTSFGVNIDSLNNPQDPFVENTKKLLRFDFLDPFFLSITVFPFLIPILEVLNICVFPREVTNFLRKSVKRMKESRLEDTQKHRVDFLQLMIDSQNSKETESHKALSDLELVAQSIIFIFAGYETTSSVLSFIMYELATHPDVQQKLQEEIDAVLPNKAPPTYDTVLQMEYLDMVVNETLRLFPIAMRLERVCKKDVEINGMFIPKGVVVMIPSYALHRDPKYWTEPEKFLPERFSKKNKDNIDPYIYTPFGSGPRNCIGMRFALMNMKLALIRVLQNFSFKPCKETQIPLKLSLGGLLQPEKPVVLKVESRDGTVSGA
Procedure: as §1, §2, §3

[5] = test system: human liver microsomes; test: Metabolism stability test with pooled human hepatic microsomes; format: in vitro ADME; settings: compound concentration 0.5 μmol/L, 30 minutes, NADPH
Procedure: Using commercially available pooled human hepatic microsomes, a test compound is reacted for a constant time, a remaining rate is calculated by comparing a reacted sample and an unreacted sample, thereby, a degree of metabolism in liver is assessed.
A reaction was performed (oxidative reaction) at 37° C. for 0 minute or 30 minutes in the presence of 1 mmol/L NADPH in 0.2 mL of a buffer (50 mmol/L tris-HCl pH 7.4, 150 mmol/L potassium chloride, 10 mmol/L magnesium chloride) containing 0.5 mg protein/mL of human liver microsomes. After the reaction, 50 μL of the reaction solution was added to 100 μL of a methanol/acetonitrile=1/1 (v/v), mixed and centrifuged at 3000 rpm for 15 minutes. The test compound in the supernatant was quantified by LC/MS/MS, and a remaining amount of the test compound after the reaction was calculated, letting a compound amount at 0 minute reaction time to be 100%.

[6] = Bioavailability (BA) test; format: in vivo; settings: plasma; mice or SD rats, oral vs intravenous AUC
Procedure: (1) Animals: Mice or SD rats were used
(2) Breeding conditions: Mice or SD rats were allowed to freely take solid food and sterilized tap water.
(3) Dose and grouping: orally or intravenously administered at a predetermined dose; grouping was as follows (Dose depends one the compound) • Oral administration: 0.3 to 30 mg/kg (n=2 to 3) • Intravenous administration: 0.5 to 10 mg/kg (n=2 to 3)
(4) Preparation of dosing solution: for oral administration, in a solution or a suspension state: for intravenous administration, in a solubilized state
(5) Administration method: in oral administration, forcedly administer into ventriculus with oral probe; in intravenous administration, administer from caudal vein with a needle-equipped syringe
(6) Evaluation items: blood was collected over time, and the plasma concentration of drug was measured by LC/MS/MS
(7) Statistical analysis: regarding the transition of the plasma concentration or the present compound, the area under the plasma concentration-time curve (AUC) was calculated by non-linear least squares program WinNonlin (Registered trade name), and the bioavailability (BA) was calculated the AUCs of the oral administration group and intravenous administration group

Sequence of rat P2X3 receptor (P49654 whole entry): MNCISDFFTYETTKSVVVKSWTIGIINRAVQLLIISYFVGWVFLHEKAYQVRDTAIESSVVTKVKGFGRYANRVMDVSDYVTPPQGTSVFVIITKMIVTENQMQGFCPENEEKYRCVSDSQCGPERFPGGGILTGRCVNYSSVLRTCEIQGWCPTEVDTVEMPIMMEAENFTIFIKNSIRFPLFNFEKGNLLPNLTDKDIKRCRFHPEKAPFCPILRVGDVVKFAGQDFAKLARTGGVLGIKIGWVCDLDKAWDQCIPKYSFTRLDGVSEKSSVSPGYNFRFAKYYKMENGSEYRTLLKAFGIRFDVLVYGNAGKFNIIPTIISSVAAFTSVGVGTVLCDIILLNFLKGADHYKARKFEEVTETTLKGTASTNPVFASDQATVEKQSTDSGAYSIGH

Structure (SMILES) | IC50 [1] | IC50 [2] | IC50 [3] | IC50 [4] | remaining rate [5] | bioavailability [6]
C[C@@H](Cn1c(=O)[nH]/c(=N\c2ccc(OCC3CC3)cc2)n(Cc2ccc(Cl)cc2)c1=O)C(=O)O [Compound I-0837] | 0.019 µM | > 20 µM | > 20 µM | > 20 µM | 99% | 46%
CCn1c(=O)[nH]/c(=N\c2ccc(Oc3ccnc(C(=O)O)c3)cc2)n(Cc2ccc(Cl)cc2)c1=O [Compound I-1788] | 0.005 µM | > 20 µM | > 20 µM | > 20 µM | > 99.9% | 31%
O=c1[nH]/c(=N\c2ccc(Oc3ccon3)cc2)n(Cc2ccc(Cl)cc2)c(=O)n1CC(CO)CO [Compound I-2291] | 0.003 µM | > 20 µM | > 20 µM | > 20 µM | 94% | 83%
